According to ChEMBL document CHEMBL3507680, “University of Dundee, Gates Library screen for HepG2 cell viability”:

Assay: Human HepG2 cell viability assay in 384 well format
Assay type: toxicity, cell-based
Design: dose 125 nL, time 70.5 hour; cytotoxicity at 70.5 h: concentration not given beside the values
Settings: HepG2 cells, read-out: Inhibition

| Compound | cytotoxicity at 70.5 h [%] |
| --- | --- |
| O=C(c1cc(-c2cccs2)nc2ccccc12)N1CCN(CCO)CC1 | 0.548 |
| CC1Cn2c(nc3c2c(=O)[nH]c(=O)n3C)O1 (configuration not stated) | -12.3 |
| CCCn1nc(C)c(C(=O)N[C@@H]2CC[C@@H](N3CCCC3)[C@@H]2O)c1C | -6.2 |
| Cc1nccn1[C@@H]1CC[C@@H](NC(=O)CCCn2cncn2)[C@H]1O | 16.1 |
| O=C(O)CCCC(=O)NCC1(O)CCN(c2ccnc3cccnc23)C1 (configuration not stated) | 1.69 |
| CSCC[C@@H]1CN2CCC[C@H]2CN1Cc1coc2ccc(C)cc2c1=O | -1.62 |
| CC(C)(C)c1ccc(OCC(N)=O)c(CN2C[C@H]3C[C@H](O)C[C@H]3C2)c1 | -7.47 |
| Cc1ccc(CN2CCOC(c3cnccn3)C2)s1 (configuration not stated) | -5.54 |
| COc1ccc2c(c1)C(=O)NC1(CC2)CCN(Cc2ccccc2)C1 (configuration not stated) | -3.55 |
| CCOc1ccc(CN2CCC(c3nc(C)cc(C)n3)C2)cc1CO (configuration not stated) | 2.12 |
| O=C(O)C1CN(c2cncc(Cc3ccccc3)n2)C1 | -3.73 |
| CN1CCC(c2n[nH]cc2-c2ccnc(N)c2)C1 (configuration not stated) | 0.193 |
| CC(C)N1CCC(c2n[nH]cc2-c2ccnc(N)c2)C1 (configuration not stated) | 2.17 |
| CN(C)S(=O)(=O)N1CCC(c2n[nH]cc2-c2ccnc(N)c2)C1 (configuration not stated) | 5.75 |
| Cc1c[nH]c(C2COCCN2C(=O)c2ccc(=O)[nH]n2)n1 (configuration not stated) | -4.98 |
| c1ccc(Cc2cccc(C3CCCN3C3CCOCC3)n2)cc1 (configuration not stated) | -13.2 |
| CC(=O)N1CC(C(=O)N2CCCC(Cn3ccnc3C)C2)C1 (configuration not stated) | -9.41 |
| CCC(=O)N1CCCC1(C)c1nc(C)no1 (configuration not stated) | -6.82 |
| OCC(CO)N1CCCC(Cc2ccnc(Nc3ccccn3)c2)C1 (configuration not stated) | -14.9 |
| O=C(NC1CCCN(c2ccccn2)C1)C1(c2ccccc2F)CC1 (configuration not stated) | 15.1 |
| CNC(=O)c1sc2ccccc2c1C1CCN(c2nc(C)cc(C)n2)C1 (configuration not stated) | -6.07 |
| Oc1cc(C2CCCCN2CC2CC2)nc(-c2ccncc2)n1 (configuration not stated) | -10.4 |
| Cc1nc(C2CCCCN2S(C)(=O)=O)no1 (configuration not stated) | -13.4 |
| Oc1cc(C2CCCCN2C2CCCC2)nc(-c2ccncc2)n1 (configuration not stated) | -14.1 |

| Compound | cytotoxicity at 70.5 h [%] |
| --- | --- |
| Cc1nc(-c2ccc(F)cc2)cc(C2CCNCC2)n1 | -10 |
| Cc1nn(C(C)C)cc1S(=O)(=O)N(C)Cc1nonc1C | -7.62 |
| Cc1nnc(C2CCN(c3ccc(F)cc3)CC2)o1 | -9.58 |
| CN(C)c1nccnc1C1CCN(C2CCCCC2O)CC1 (configuration not stated) | -8.92 |
| CNc1cc(C2CN(C(=O)c3ccn(C)n3)CCO2)nc(C)n1 (configuration not stated) | 26.5 |
| CNc1cc(C2CN(C(=O)c3ccccc3)CCO2)nc(C)n1 (configuration not stated) | -5.28 |
| CNc1cc(C2CN(C(=O)c3cscn3)CCO2)nc(C)n1 (configuration not stated) | 26 |
| O=C(O)c1ccccc1-n1cnc(CN2CCc3ccccc32)c1 | -7.59 |
| Cc1cc(C)nc(C2CCCN2S(=O)(=O)N2CCOCC2)n1 (configuration not stated) | -4.98 |
| Cc1cc(O)cc(C2CCCN2C(=O)c2ccncc2)n1 (configuration not stated) | -5.31 |
| CC[C@@H](Cn1ncc2ccccc2c1=O)NC(=O)c1ccco1 | -8.28 |
| Cc1ncc(CN2CCc3c(nc4cc(C5CC5)nn4c3O)C2)n1C | -2.73 |
| O=C(Cc1cccc(F)c1F)NC1COc2ccccc2C1=O (configuration not stated) | -10.6 |
| Cc1nn(C)c(C)c1NC(=O)CNC(c1ccccc1)C1CCCC1 (configuration not stated) | -9.64 |
| CCCN(CCC)C(=O)c1sc(C)nc1C | -7.05 |
| CC(SCCNS(=O)(=O)c1cnn(C)c1)c1cccs1 (configuration not stated) | -4.4 |
| CCc1cnc(CNC(=O)NC2CC(C)(C)OC2(C)C)s1 (configuration not stated) | 12.1 |
| Cc1nc(C)c(CNC(=O)NC2CC(C)(C)OC2(C)C)s1 (configuration not stated) | -0.473 |
| Cc1nc(-c2cccs2)ccc1C(=O)N1CCN(CCO)CC1 | 0.744 |
| CCC(CC)(CNC(=O)c1cccn1Cc1cccnc1)N(C)C | -3.43 |
| Cc1cc(NC(=O)c2ccc(C)c(F)c2)[nH]n1 | -1.85 |
| Cc1ccc(-c2nc(CC(=O)NCC3CCOC3)cs2)o1 (configuration not stated) | -2.56 |
| COCCCc1nc(-c2ccc(S(=O)(=O)N3CCCC3)cc2)cs1 | -4.93 |
| CC(C#N)CN(C)Cc1cc(Cl)cc2cccnc12 (configuration not stated) | -0.893 |

| Compound | cytotoxicity at 70.5 h [%] |
| --- | --- |
| Cc1ccc(-c2nc(CC(=O)NCC3CCCOC3)cs2)o1 (configuration not stated) | -0.602 |
| CC1CCCN(C(=O)c2cn(-c3ccc(C(F)(F)F)cn3)nn2)C1 (configuration not stated) | 12.2 |
| CCc1ccc2c(c1)C(CCNC(=O)CCc1ccsc1)C(=O)N2 (configuration not stated) | -2.26 |
| NS(=O)(=O)c1ccc(NCc2ccccc2)cc1C(F)(F)F | 4.82 |
| CCc1nnc(S(=O)(=O)Cc2cc(Cl)c3c(c2)OCO3)n1C | -1.18 |
| CCN(C)S(=O)(=O)c1c(F)cc(NC(C)=O)cc1F | -2.83 |
| O=C(c1ccc(-c2cccs2)cc1F)N1CCN(CCO)CC1 | -2.06 |
| Cc1nc(-c2ccccc2)ccc1C(=O)N1CCN(CCO)CC1 | -1.89 |
| Cc1ccc(C(=O)N(C)S(C)(=O)=O)cc1Cl | -1.55 |
| Cc1ccc(C)c(-n2ncc(NC(=O)NC3(C)CCOC3)c2C)c1 (configuration not stated) | 14.4 |
| CC(C)C(C)NC(=O)c1cccn1Cc1cccnc1 (configuration not stated) | -0.474 |
| Cc1ccc(C)c(-n2nnnc2SCN2CCCCC2=O)c1 | -3.06 |
| CCOCCCNC(=O)c1cccn1Cc1cccnc1 | -4.46 |
| CN1CCN(C(=O)CCC(=O)c2cccs2)Cc2ccccc21 | -0.893 |
| CN1CCN(C(=O)c2cccs2)Cc2ccccc21 | -0.544 |
| CC(=O)N(C)Cc1ccccc1NC(=O)c1ccccc1C | -2.28 |
| N#Cc1cnc2cc(F)cc(F)c2c1NC1CCN(CC(N)=O)CC1 | -4.4 |
| O=C(CSc1nnc(N2CCOCC2)s1)NCc1cccs1 | -2.54 |
| O=C(Nc1ccc(F)cc1)N1CCC(CO)(Nc2ccccc2)CC1 | 0.526 |
| CN(CC(=O)Nc1cnn(-c2ccccc2S(C)(=O)=O)c1)C1CC1 | -3.94 |
| CC(C)C(NC(=O)N1CCS(=O)(=O)CC1)c1ccccc1Cl (configuration not stated) | -5.93 |
| Cn1cc(NS(=O)(=O)CCOc2ccc(F)cc2)cn1 | -4.23 |
| Cc1cccc(C2CCCCCN2C(=O)c2cn(CC(N)=O)nn2)c1 (configuration not stated) | -6.65 |
| Cc1ccc(S(=O)(=O)NC(=O)CCC(F)(F)F)cc1N(C)C | -1.96 |

| Compound | cytotoxicity at 70.5 h [%] |
| --- | --- |
| Cc1ccc(S(=O)(=O)NC(=O)CCc2ccccc2)cc1N(C)C | -5.27 |
| O=C(Nc1cn[nH]c1)N1CCCCCC1c1ccncc1 (configuration not stated) | -8.75 |
| CC(NC(=O)N1CCNC(=O)CC1)c1c(F)cccc1Cl (configuration not stated) | -4.44 |
| CCCS(=O)(=O)N1CCN(C(C)(C)CO)CC1 | 15.5 |
| CN(CC(C)(CO)CO)C(=O)Nc1cc(F)cc(Cl)c1 | -6.37 |
| CC(NCCCN1CCCC1=O)c1ccc(F)cc1N(C)C (configuration not stated) | -4.56 |
| CC(NCC1(N(C)C)CCOCC1)c1ccc(S(C)(=O)=O)cc1 (configuration not stated) | -3.6 |
| CC(NCCCN1CCCC1=O)c1cc(Br)ccc1O (configuration not stated) | -5.37 |
| Cn1cc(NCCOc2ccc(F)cc2)cn1 | -5.12 |
| Cc1ccc(O)c(CNc2cccc(CN3CCN(C)CC3)c2)n1 | -0.441 |
| CC1CCCCN1C(=O)CCc1nnc(-c2ccccc2)o1 (configuration not stated) | -1.68 |
| NC(=O)CS(=O)(=O)Cc1csc(-c2ccccc2)n1 | -4.61 |
| O=C(Cc1ccc2c(c1)CCCC2)Nc1cccnc1N1CCSCC1 | -7.86 |
| O=C(Nc1cccnc1N1CCSCC1)c1cc2c(s1)CCCCC2 | -6.67 |
| Cc1nc(-c2ccccc2)sc1CNC(=O)c1ccc(=O)n(C)c1 | -3.22 |
| Cc1c(C(=O)N2CCC2)nnn1-c1ccc2ncccc2c1 | -3.53 |
| Cc1ccc(S(=O)(=O)Nc2ccc(-n3ccnc3C)nc2)cc1N(C)C | -2.22 |
| Cc1cccc(NCc2nc(C)ccc2O)c1 | -1.28 |
| COCCN1CCC(CNC(=O)CCc2cc(F)ccc2F)C1 (configuration not stated) | -4.52 |
| CCc1ccc(C(=O)N2CCCN(Cc3csc(CC)n3)CC2)o1 | 6.45 |
| CCN1CCN(C(=O)c2ccc(OC)nn2)c2ccccc21 | -0.876 |
| CN(C)C(=O)CN(C)C(=O)c1cccn1CCc1ccccc1 | -3.57 |
| c1cnnc(N2CCCC(NCc3cccc4c3OCO4)C2)c1 (configuration not stated) | 1.39 |
| COc1ccc(OC)c(CNC2CCCN(c3cccnn3)C2)c1 (configuration not stated) | -3.12 |

| Compound | cytotoxicity at 70.5 h [%] |
| --- | --- |
| CCc1nc(CN2CCN(C(=O)c3cc(C)nn3C)CC2)cs1 | -6.68 |
| CCN1CCN(C(=O)c2csnn2)c2ccccc21 | 9.42 |
| CS(=O)(=O)Cc1noc(CN(Cc2ccco2)c2ccccc2)n1 | -5.15 |
| NC(=O)c1ccc(CNC(=O)NCc2cc[nH]n2)cc1 | -12.2 |
| Cc1noc(C)c1C(=O)N(C)C(C)c1ccc(S(C)(=O)=O)cc1 (configuration not stated) | -20.5 |
| O=C(NCC1CCOC1)c1cc(-c2ccc(Cl)cc2)n[nH]1 (configuration not stated) | 20.6 |
| CC(NC(=O)NC1CCN(Cc2ccncc2)CC1)c1ccccc1F (configuration not stated) | -22.4 |
| Cc1cc(N(C)CC2COc3ccccc3O2)nc(N)n1 (configuration not stated) | -5.43 |
| COc1cccc(CNC(=O)C(C)N2CC(n3nc(C)cc3C)C2)c1 (configuration not stated) | -12.9 |
| Cc1noc(C)c1C(=O)N(C)C(C)c1cccnc1 (configuration not stated) | -15.6 |
| COc1ccccc1CNC(=O)C(C)N1CC(n2cc(C)cn2)C1 (configuration not stated) | -10.8 |
| CNS(=O)(=O)CC(=O)N(C1CCCC1)C1CC1 | -12.4 |
| CN(CCOc1ccccc1)C(=O)Nc1cccn(C)c1=O | 20.8 |
| O=C1CSCN1Cc1nc(-c2ccc(N3CCCCC3)cc2)no1 | -5.66 |
| O=C1OCCCN1Cc1nc(-c2ccc(N3CCCCC3)cc2)no1 | -11.4 |
| NC(=O)c1ccc(NC(=O)N2CCN(c3cccs3)CC2)c(F)c1 | -16.2 |
| CC(C)c1noc(C(C)N2CCN(Cc3nc4ccccc4[nH]3)CC2)n1 (configuration not stated) | -8.5 |
| Cc1nc(C2CCNC2)nc2c1CCC(=O)N2C (configuration not stated) | -4.12 |
| Cc1nccn1-c1cccc(C2CCCN2)n1 (configuration not stated) | -13.4 |
| Cc1nc(-c2ccc(F)c(F)c2)cc(C2CCNCC2)n1 | -2.44 |
| CCC(CN1CCOCC1)n1cncc1-c1ccc2c(c1)CCN2CC (configuration not stated) | 21 |
